Test results: BindingDB's records for doi:10.1002/cbic.201300187 (The Johns Hopkins University, 2013)

biological target: T1, 1-deoxy-D-xylulose-5-phosphate synthase (Escherichia coli (strain K12), UniProt P77488); assay: DXP Synthase Inhibition Assay; settings: pH 8; 37 °C
T1 sequence (P77488 whole entry): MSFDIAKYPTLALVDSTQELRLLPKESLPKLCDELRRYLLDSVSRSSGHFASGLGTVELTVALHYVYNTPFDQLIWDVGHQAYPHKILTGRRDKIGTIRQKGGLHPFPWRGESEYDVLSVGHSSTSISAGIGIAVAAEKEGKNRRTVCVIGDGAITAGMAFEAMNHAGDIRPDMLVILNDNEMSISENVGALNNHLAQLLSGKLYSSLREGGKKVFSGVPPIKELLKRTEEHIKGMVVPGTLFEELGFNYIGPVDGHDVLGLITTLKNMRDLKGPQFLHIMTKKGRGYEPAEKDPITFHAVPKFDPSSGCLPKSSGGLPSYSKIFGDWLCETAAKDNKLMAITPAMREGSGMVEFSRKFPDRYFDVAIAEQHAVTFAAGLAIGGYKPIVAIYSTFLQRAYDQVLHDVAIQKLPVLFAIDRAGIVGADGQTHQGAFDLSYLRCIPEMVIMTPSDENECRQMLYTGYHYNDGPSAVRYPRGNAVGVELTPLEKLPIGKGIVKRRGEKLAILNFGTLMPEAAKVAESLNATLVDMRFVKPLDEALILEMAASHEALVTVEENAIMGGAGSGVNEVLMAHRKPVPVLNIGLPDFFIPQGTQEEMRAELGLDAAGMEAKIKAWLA
Experimental: Reaction mixtures containing HEPES (100mM, pH 8.0, 2mM MgCl2, 5mM NaCl), ThDP (1mM), BSA (1mg/mL), DMSO (10%, v/v), ᴅ-GAP (30µM), pyruvate (80µM), and various concentrations of nitroso inhibitor were preincubated at 37°C for 5 min. Enzyme reactions were initiated by addition of DXP synthase (0.1µM). Aliquots (150µL) of the enzymatic mixture were removed between 0.5 and 3 min and quenched in ice-cold methanol (150µL).

For `Cc1nn(C(C)C)c(C)c1N=O` [1‐isopropyl‐3,5‐dimethyl‐4‐nitrosopyrazole (Substrate 9)], which IC50 is on record?
The IC50 was over 2000 µM.

With `COc1ccc2ccc(O)c(N=O)c2c1` [7‐methoxy‐1‐nitrosonaphthalen‐2‐ol (Substrate 8)] as the compound, how does the IC50 read?
Its IC50 is over 2000 µM.

Which IC50 does the source give for `CN(C)c1ccc(N=O)cc1` [NDMA (Substrate 4)] here?
The IC50 was 844 µM.

How did the IC50 turn out when `O=Nc1ccccc1` [NOB] was run?
Its IC50 is 208 µM.
